Source: patent publication US9889183B2, “PKC activators and anticoagulant in regimen for treating stroke” (BLANCHETTE ROCKEFELLER NEUROSCIENCES INSTITUTE, priority 2010, dated 2018)

Assays:
PKCε = biological target: T1, PKCε (Homo sapiens, UniProt Q02156); assay: PKC assay with purified PKCε; type: biochemical
T1 construct: purchased Calbiochem
T1 sequence (Q02156 1-737): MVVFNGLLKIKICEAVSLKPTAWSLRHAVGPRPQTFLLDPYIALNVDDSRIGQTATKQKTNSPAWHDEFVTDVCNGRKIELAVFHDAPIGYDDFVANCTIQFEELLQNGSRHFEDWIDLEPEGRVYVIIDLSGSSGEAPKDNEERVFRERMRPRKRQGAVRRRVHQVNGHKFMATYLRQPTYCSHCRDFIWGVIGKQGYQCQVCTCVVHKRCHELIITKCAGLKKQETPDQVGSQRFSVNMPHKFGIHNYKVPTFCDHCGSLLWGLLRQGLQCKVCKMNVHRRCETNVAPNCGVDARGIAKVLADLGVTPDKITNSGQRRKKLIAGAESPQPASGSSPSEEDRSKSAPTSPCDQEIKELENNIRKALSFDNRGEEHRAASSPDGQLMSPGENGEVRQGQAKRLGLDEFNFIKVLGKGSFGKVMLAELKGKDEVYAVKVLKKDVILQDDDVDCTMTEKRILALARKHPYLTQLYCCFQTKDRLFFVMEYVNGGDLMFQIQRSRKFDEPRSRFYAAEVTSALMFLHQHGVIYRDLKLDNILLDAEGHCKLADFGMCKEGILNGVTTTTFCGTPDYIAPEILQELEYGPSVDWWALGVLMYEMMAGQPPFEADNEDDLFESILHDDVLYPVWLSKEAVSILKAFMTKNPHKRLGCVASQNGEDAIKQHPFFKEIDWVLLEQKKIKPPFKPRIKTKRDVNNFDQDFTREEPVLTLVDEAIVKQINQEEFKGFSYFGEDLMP
Experimental: PKC assay. Recombinant PKC (1 ng of PKCα or PKCε isoform) was mixed with BR-101 (DCP-LA) in the presence of 10 micromolar histones, 5 mM CaCl2, 1.2 μg/μl phosphatidyl-L-serine, 0.18 μg/μl 1,2-dioctanoyl-sn-glycerol (DAG), 10 mM MgCl2, 20 mM HEPES (pH 7.4), 0.8 mM EDTA, 4 mM EGTA, 4% glycerol, 8 μg/ml aprotinin, 8 μg/ml leupeptin, and 2 mM benzamidine. 0.5 micro Ci[^γ32P]ATP was added. The incubation mixture was incubated for 15 min at 37 degrees in a total volume of 10 microliters. The reaction was stopped by spotting the reaction mixtures on 1×2 cm strips of cellulose phosphate paper (Whatman P81) and immediately washing twice for 1 hr in 0.5% H3PO4. The cellulose phosphate strips were counted in a scintillation counter. In some experiments, phosphatidylserine, diacylglycerol, and/or calcium were removed.
DHA methyl ester was purchased from Cayman Chemical (Ann Arbor, Me.). PKC isozymes were from Calbiochem (San Diego, Calif.). Purified PKCε was purchased from Calbiochem.
(§1) Protein kinase C assay. Rat hippocampal cells were cultured and scraped in 0.2 ml homogenization buffer (20 mM Tris-HCl, pH 7.4, 50 mM NaF, 1 μg/ml leupeptin, and 0.1 mM PMSF) and homogenized by sonication a Marsonix microprobe sonicator (5 sec, 10 W). To measure PKC, 10 μl of cell homogenate or purified PKC isozyme (purchased from Calbiochem) was incubated for 15 min at 37° C. in the presence of 10 μM histones, 4.89 mM CaCl2, 1.2 μg/μl phosphatidyl-L-serine, 0.18 μg/μl 1,2-dioctanoyl-sn-glycerol, 10 mM MgCl2, 20 mM HEPES (pH 7.4), 0.8 mM EDTA, 4 mM EGTA, 4% glycerol, 8 μg/ml aprotinin, 8 μg/ml leupeptin, and 2 mM benzamidine. […][^γ32P]ATP was added and ^32P-phosphoprotein formation was measured by adsorption onto phosphocellulose as described previously. Nelson and Alkon, J. Neurochemistry (1995), vol. 65, pp. 2350-2357. For measurements of activation by BR-101 (DCP-LA) and similar compounds. PKC activity was measured in the absence of diacylglycerol and phosphatidylserine and PKC δ, ε, η, and μ were measured in the absence of added EGTA and CaCl2, as described by Kanno et al. (J. Lipid Res. 2006, vol. 47, pp. 1146-1150). Low concentrations of Ca^2+ are used because high Ca^2+ interacts with the PKC phosphatidylserine binding site and prevents activation. For measurements of bryostatin activation, 1,2-diacylglycerol was omitted unless otherwise stated.
To determine their PKC isozyme specificity, fatty acid derivatives were preincubated with purified PKC for five minutes and the PKC activity was measured radiometrically.

[1] = system: ischemic stroke (middle cerebral artery occlusion) in rats; assay: Focal ischemia (MCAO) model of stroke; type: in vivo, rat
Experimental: A transient animal model of focal ischemia was used for these experiments. The middle cerebral artery (MCA) was surgically dissected and occluded in anesthetized rats by ligature, followed by reperfusion after a defined period (about 2 hours). Animal models transient ischemia via occlusion of the MCA (MCAO) are well-known and described in, e.g., Sicard and Fisher, Exp. & Transl. Stroke Med. (2009), vol. 1, pp. 1-7.

[2] = system: PKC in H19-7/IGF-IR cells; assay: PKC activity over time in rat H19-7/IGF-IR hippocampal cells; type: cell-based
Experimental: Cell culture. Rat hippocampal H19-7/IGF-IR cells (ATCC, Manassas, Va.) were plated onto poly-L-lysine coated plates and grown at 35° C. in DMEM/10% FCS for several days until about 50% coverage was obtained. The cells were then induced to differentiate into a neuronal phenotype by replacing the medium with 5 ml N2 medium containing 10 ng/ml basic fibroblast growth factor at 39° C. and grown in T-75 flasks at 37° C. Human SH-SY5Y neuroblastoma cells (ATCC) were cultured in 45% F12K/45% MEM/10% FCS. Mouse N2A neuroblastoma cells were cultured in DMEM/10% FCS without glutamine. Rat hippocampal neurons from 18-day-old embryonic Sprague Dawley rat brains were plated on 12- or 96-well plates coated with poly-D-lysine (Sigma-Aldrich, St. Louis, Mo.) in B-27 neurobasal medium containing 0.5 mM glutamine and 25 μM glutamate (Invitrogen, Carlsbad, Calif.) and cultured for three days in the medium without glutamate. The neuronal cells were grown under 5% CO2 in an incubator maintained at 37° C. for 14 days.
as §1
PKC activators that bind to the diacylglycerol binding site, including bryostatin, gnidimacrin, and phorbol esters, produce a transient activation of PKC activity, followed by a prolonged downregulation. Nelson et al., Trends in Biochem. Sci. (2009), vol. 34, pp. 136-145. This was confirmed in cultured rat hippocampal cells. Incubation of rat H19-7/IGF-IR cells with (0.04 nM and 0.2 nM) bryostatin produced a 2-fold activation that lasted 30 min, followed by a 20% downregulation that returned to baseline by 24 hours (data not shown). […] This sustained activation was only observed in primary neurons.

[3] = rTPA at 2 hours followed 6 hours later with bryostatin-1, vs rTPA alone

CCC1CC1CC1CC1CC1CC1CC1CC1CC1CC1CC1CC1CCC(=O)OC (stereo not shown) [BR-111, methyl-3-(2-((2-((2-((2-((2-((2-ethylcyclopropyl)methyl)cyclopropyl)methyl)cyclopropyl)methyl)-cyclopropyl)methyl)cyclopropyl)methyl)cyclopropyl)propanoate]
concentration needed to activate PKC relative to BR-101 (DCP-LA) (PKCε): approximately 100 times lower
activation of purified PKCε (in words) (PKCε; FIG. 7, methyl esters): activated purified PKCε to a similar extent

CCC/C=C/C=C/C(=O)O[C@H]1/C(=C/C(=O)OC)C[C@H]2C[C@H]([C@@H](C)O)OC(=O)C[C@H](O)C[C@@H]3C[C@H](OC(C)=O)C(C)(C)[C@](O)(C[C@@H]4C/C(=C/C(=O)OC)C[C@H](/C=C/C(C)(C)[C@]1(O)O2)O4)O3 [Bryostatin-1, bryostatin-1]
brain edema ([1]; bryostatin-1 2 hours after stroke, rTPA 6 hours later, vs rTPA alone): significantly reduced
reduction of assayed hemoglobin in the cortex and striatum ([1]; bryostatin-1 2 hours after stroke, rTPA 6 hours later, vs rTPA at 6 hours alone): 50%
mortality 24 hours later ([1]; rTPA 6 hours after the stroke, followed 2 hours later with bryostatin-1, rats): 0%
uptake of Evans Blue dye in ipsilateral and contralateral cortices (BBB permeability) [1, 3]: significantly reduced
uptake of NaF in ipsilateral and contralateral cortices [1, 3]: reduced
PKC downregulation following activation ([2]; 0.04 nM and 0.2 nM): 20%
duration of PKC activation ([2]; 0.04 nM and 0.2 nM): 30 min
time of return of PKC to baseline ([2]; 0.04 nM and 0.2 nM): ≤ 24 h
PKC activation ([2]; 0.04 nM and 0.2 nM, H19-7/IGF-IR cells): 2 fold
PKC activity at 8 hours (downregulation) ([2]; treated cells, 8 hours, data not shown): at or near the baseline

CCCCCC1CC1CC1CC1CCCCCCCC(=O)O (stereo not shown) [BR-101, 2-[(2-pentylcyclopropyl)methyl]cyclopropaneoctanoic acid]
activation of PKCε (in words) (PKCε; at 10 μM): effective activator
